{"source": "paper PMC9934367", "about": "“Functional impact of subunit composition and compensation on Drosophila melanogaster nicotinic receptors–targets of neonicotinoids” (PLOS Genetics, 2023)", "system": "D. melanogaster nAChRs", "test": "Comparison of agonist activity between nAChRs expressed in X. laevis oocytes (one-way ANOVA, Kruskal-Wallis)", "assay_type": "cell-based", "experimental": "We minimised the use of X. laevis according to the UK Animals (Scientific Procedures) Act, 1986. […] Oocytes were defolliculated after collagenase treatment in Ca^2+-free standard oocyte saline (Ca^2+-free SOS). cRNAs of the nAChR subunits and co-factors mixed at a concentration of 0.1 mg/mL was injected into oocytes at a volume of 50 nL. Then the oocytes were incubated in the incubation medium (SOS supplemented with sodium pyruvate (Nacalai Tesque, #13058–12), penicillin-streptomycin (MilliporeSigma, #P4333), gentamycin (Nacalai Tesque, #16672–04), and 4% horse serum (Thermo Fisher Scientific, #26050–070) for 3−4 days prior to electrophysiology.\nEach defolliculated X. laevis oocyte was secured in a Perspex recording chamber and perfused with the standard oocyte saline (SOS) containing 0.5 μM atropine (SOSA) at a flow rate of 7−10 mL/min [48]. Two glass electrodes filled with 2 M KCl were impaled into each oocyte and the membrane potential was clamped at -100 mV. […] The peak amplitude of the response was measured and analysed by pCLAMP (Molecular Devices, USA).\nY=Imax/1+10^(logEC50‐X)nH\nWhere Y is the normalised response, X is log[ligand (M)], EC50 is the half maximal concentration (M), Imax is the maximum normalised response and nH is the Hill coefficient.\nPrism software was employed for the statistical analyses. […] One-way ANOVA was used to analyse the differences of the ligand agonist activity in terms of pEC50 on the various nAChRs expressed in X. laevis as well as data obtained with D. melanogaster larvae and adults."}
{"smiles": "CC(=O)OCC[N+](C)(C)C", "note": "[ACh, acetylcholine]", "values": [{"measurement": "Difference of pEC50 values, nAChRs compared", "setting": "Dα1/Dα2/Dα3/Dβ1/Dβ2 vs. Dα1/Dα2/Dβ1/Dβ2/Dβ3", "value": 0.07}, {"measurement": "Difference of pEC50 values, nAChRs compared", "setting": "Dα1/Dα2/Dα3/Dβ1/Dβ2 vs. Dα1/Dα3/Dα4/Dβ1/Dβ2", "value": -0.30}, {"measurement": "Difference of pEC50 values, nAChRs compared", "setting": "Dα1/Dα2/Dα3/Dβ1/Dβ2 vs. Dα1/Dα3/Dβ1/Dβ2/Dβ3", "value": -1.34}, {"measurement": "Difference of pEC50 values, nAChRs compared", "setting": "Dα1/Dα2/Dα3/Dβ1/Dβ2 vs. Dα2/Dα3/Dα4/Dβ1/Dβ2", "value": -1.00}, {"measurement": "Difference of pEC50 values, nAChRs compared", "setting": "Dα1/Dα2/Dα3/Dβ1/Dβ2 vs. Dα2/Dα3/Dβ1/Dβ2/Dβ3", "value": -1.52}, {"measurement": "Difference of pEC50 values", "setting": "Dα1/Dα2/Dα3/Dβ1 vs. Dα1/Dα2/Dα3/Dβ1/Dβ2", "value": 0.94}, {"measurement": "Difference of pEC50 values", "setting": "Dα1/Dα2/Dα3/Dβ1 vs. Dα1/Dα2/Dβ1/Dβ2", "value": 0.51}, {"measurement": "Difference of pEC50 values", "setting": "Dα1/Dα2/Dα3/Dβ1 vs. Dα1/Dα3/Dβ1/Dβ2", "value": -1.00}, {"measurement": "Difference of pEC50 values", "setting": "Dα1/Dα2/Dα3/Dβ1 vs. Dα1/Dβ1/Dβ2", "value": 0.68}, {"measurement": "Difference of pEC50 values", "setting": "Dα1/Dα2/Dα3/Dβ1 vs. Dα3/Dβ1/Dβ2", "value": -0.76}, {"measurement": "Difference of pEC50 values", "setting": "Dα1/Dα2/Dβ1/Dβ2 vs. Dα2/Dα3/Dβ1/Dβ2", "value": -1.07}, {"measurement": "Difference of pEC50 values", "setting": "Dα1/Dα2/Dβ1 vs. Dα1/Dα2/Dα3/Dβ1", "value": -1.29}, {"measurement": "Difference of pEC50 values", "setting": "Dα1/Dα2/Dβ1 vs. Dα1/Dα2/Dα3/Dβ1/Dβ2", "value": -0.35}, {"measurement": "Difference of pEC50 values", "setting": "Dα1/Dα2/Dβ1 vs. Dα1/Dα2/Dβ1/Dβ2", "value": -0.78}, {"measurement": "Difference of pEC50 values", "setting": "Dα1/Dα2/Dβ1 vs. Dα1/Dα3/Dβ1/Dβ2", "value": -2.29}, {"measurement": "Difference of pEC50 values", "setting": "Dα1/Dα2/Dβ1 vs. Dα2/Dα3/Dβ1", "value": -1.31}, {"measurement": "Difference of pEC50 values", "setting": "Dα1/Dα2/Dβ1 vs. Dα2/Dα3/Dβ1/Dβ2", "value": -1.85}, {"measurement": "Difference of pEC50 values", "setting": "Dα1/Dα2/Dβ1 vs. Dα3/Dβ1/Dβ2", "value": -2.05}, {"measurement": "Difference of pEC50 values", "setting": "Dα1/Dα3/Dβ1/Dβ2 vs. Dα1/Dα2/Dα3/Dβ1/Dβ2", "value": 1.94}, {"measurement": "Difference of pEC50 values", "setting": "Dα1/Dα3/Dβ1/Dβ2 vs. Dα1/Dα2/Dβ1/Dβ2", "value": 1.51}, {"measurement": "Difference of pEC50 values", "setting": "Dα1/Dα3/Dβ1 vs. Dα1/Dα2/Dα3/Dβ1/Dβ2", "value": 1.36}, {"measurement": "Difference of pEC50 values", "setting": "Dα1/Dα3/Dβ1 vs. Dα1/Dα2/Dβ1", "value": 1.71}, {"measurement": "Difference of pEC50 values", "setting": "Dα1/Dα3/Dβ1 vs. Dα1/Dα2/Dβ1/Dβ2", "value": 0.93}, {"measurement": "Difference of pEC50 values", "setting": "Dα1/Dα3/Dβ1 vs. Dα1/Dβ1/Dβ2", "value": 1.10}, {"measurement": "Difference of pEC50 values", "setting": "Dα1/Dα3/Dβ1 vs. Dα2/Dα3/Dβ1", "value": 0.40}, {"measurement": "Difference of pEC50 values", "setting": "Dα1/Dα3/Dβ1 vs. Dα3/Dβ1/Dβ2", "value": -0.34}, {"measurement": "Difference of pEC50 values", "setting": "Dα1/Dβ1/Dβ2 vs. Dα1/Dα2/Dα3/Dβ1/Dβ2", "value": 0.26}, {"measurement": "Difference of pEC50 values", "setting": "Dα1/Dβ1/Dβ2 vs. Dα1/Dα3/Dβ1/Dβ2", "value": -1.68}, {"measurement": "Difference of pEC50 values", "setting": "Dα1/Dβ1/Dβ2 vs. Dα2/Dα3/Dβ1/Dβ2", "value": -1.24}, {"measurement": "Difference of pEC50 values", "setting": "Dα1/Dβ1/Dβ2 vs. Dα3/Dβ1/Dβ2", "value": -1.44}, {"measurement": "Difference of pEC50 values", "setting": "Dα1/Dβ1 vs. Dα1/Dα2/Dα3/Dβ1/Dβ2", "value": 0.75}, {"measurement": "Difference of pEC50 values", "setting": "Dα1/Dβ1 vs. Dα1/Dα2/Dβ1", "value": 1.10}, {"measurement": "Difference of pEC50 values", "setting": "Dα1/Dβ1 vs. Dα1/Dα2/Dβ1/Dβ2", "value": 0.32}, {"measurement": "Difference of pEC50 values", "setting": "Dα1/Dβ1 vs. Dα1/Dα3/Dβ1/Dβ2", "value": -1.19}, {"measurement": "Difference of pEC50 values", "setting": "Dα1/Dβ1 vs. Dα1/Dβ1/Dβ2", "value": 0.49}, {"measurement": "Difference of pEC50 values", "setting": "Dα1/Dβ1 vs. Dα2/Dα3/Dβ1", "value": -0.21}, {"measurement": "Difference of pEC50 values", "setting": "Dα1/Dβ1 vs. Dα2/Dα3/Dβ1/Dβ2", "value": -0.75}, {"measurement": "Difference of pEC50 values", "setting": "Dα1/Dβ1 vs. Dα3/Dβ1", "value": -0.90}, {"measurement": "Difference of pEC50 values", "setting": "Dα1/Dβ1 vs. Dα3/Dβ1/Dβ2", "value": -0.95}, {"measurement": "Difference of pEC50 values", "setting": "Dα2/Dα3/Dβ1/Dβ2 vs. Dα1/Dα2/Dα3/Dβ1/Dβ2", "value": 1.50}, {"measurement": "Difference of pEC50 values", "setting": "Dα2/Dα3/Dβ1 vs. Dα1/Dα2/Dα3/Dβ1", "value": 0.02}, {"measurement": "Difference of pEC50 values", "setting": "Dα2/Dα3/Dβ1 vs. Dα1/Dα2/Dα3/Dβ1/Dβ2", "value": 0.96}, {"measurement": "Difference of pEC50 values", "setting": "Dα2/Dα3/Dβ1 vs. Dα1/Dα3/Dβ1/Dβ2", "value": -0.98}, {"measurement": "Difference of pEC50 values", "setting": "Dα2/Dα3/Dβ1 vs. Dα1/Dβ1/Dβ2", "value": 0.70}, {"measurement": "Difference of pEC50 values", "setting": "Dα2/Dα3/Dβ1 vs. Dα3/Dβ1/Dβ2", "value": -0.74}, {"measurement": "Difference of pEC50 values", "setting": "Dα3/Dβ1/Dβ2 vs. Dα1/Dα2/Dα3/Dβ1/Dβ2", "value": 1.70}, {"measurement": "Difference of pEC50 values", "setting": "Dα3/Dβ1/Dβ2 vs. Dα1/Dα2/Dβ1/Dβ2", "value": 1.27}, {"measurement": "Difference of pEC50 values", "setting": "Dα3/Dβ1/Dβ2 vs. Dα1/Dα3/Dβ1/Dβ2", "value": -0.24}, {"measurement": "Difference of pEC50 values", "setting": "Dα3/Dβ1/Dβ2 vs. Dα2/Dα3/Dβ1/Dβ2", "value": 0.20}, {"measurement": "Difference of pEC50 values", "setting": "Dα3/Dβ1 vs. Dα1/Dα2/Dα3/Dβ1", "value": 0.71}, {"measurement": "Difference of pEC50 values", "setting": "Dα3/Dβ1 vs. Dα1/Dα2/Dα3/Dβ1/Dβ2", "value": 1.65}, {"measurement": "Difference of pEC50 values", "setting": "Dα3/Dβ1 vs. Dα1/Dα2/Dβ1", "value": 2.00}, {"measurement": "Difference of pEC50 values", "setting": "Dα3/Dβ1 vs. Dα1/Dα2/Dβ1/Dβ2", "value": 1.22}, {"measurement": "Difference of pEC50 values", "setting": "Dα3/Dβ1 vs. Dα1/Dα3/Dβ1", "value": 0.29}, {"measurement": "Difference of pEC50 values", "setting": "Dα3/Dβ1 vs. Dα1/Dα3/Dβ1/Dβ2", "value": -0.29}, {"measurement": "Difference of pEC50 values", "setting": "Dα3/Dβ1 vs. Dα1/Dβ1/Dβ2", "value": 1.39}, {"measurement": "Difference of pEC50 values", "setting": "Dα3/Dβ1 vs. Dα2/Dα3/Dβ1", "value": 0.69}, {"measurement": "Difference of pEC50 values", "setting": "Dα3/Dβ1 vs. Dα3/Dβ1/Dβ2", "value": -0.05}]}
